Experimental data published in US12534444B2, “Treatment of cancer/inhibition of metastasis” (Celex Oncology Innovations Limited, priority 2010, dated 2026).
Entries after “also recorded” stand apart in the source; their conditions may differ.

Experiments:
[1] = tested on: MDA-MB-231 cells; test: Lateral motility assay (wound-heal / scratch); format: cell-based, human
Experimental: This assay was used to represent the “free” motility of cancer cells during local spreading. FIG. 5(a) is a plan view from above of a cell culture dish 501 having a semi-confluent layer of cells 502 on its surface, the cells being in an aqueous medium 503.
In order to determine lateral motility, a “wound-heal (“scratch”)” test was carried out, in which a scratch 504 of ˜0.5 mm was made through the layer of cells, as shown in FIG. 5(b) which is a side sectional view of the cell culture dish.
During the period of 24 hours following the formation of the scratch, the cells moved into the gap.
FIGS. 5(c) and 5(d) are schematic plan views of the cell culture dish 501 at time t=zero when the width of the scratch 504 is w0 and time t=24 hours when the width of the scratch 504 is w24, respectively.
(§1) With the exception of single cell adhesion tests, which are discussed in the following paragraph, experiments were carried out under either; • (i) normal normoxic conditions ([…], 5% carbon dioxide), or • (ii) following 24 hours hypoxic pre-treatment (2% O2, 5% CO2, 93% N2) continued during the assays.

[2] = tested on: MDA-MB-231 cells; test: Invasion assay (Matrigel Transwell); format: cell-based, human
Excerpt: This assay is an extension of the transverse migration assay described above. To “invade”, the cells need both (i) to move as in the transverse migration assay and (ii) secrete a proteolytic enzyme to digest their surroundings. The ability of cells to invade neighbouring tissues by enzyme secretion was therefore assessed by using a layer of Matrigel™ (BD Biosciences) spread across the porous membrane of a Transwell® insert.
FIG. 7 is a schematic side sectional view of an invasion chamber 701 having a Transwell® insert 702 separating the chamber into upper 703 and lower 704 sections. The insert 702 has a migration filter membrane 705 in its base with 8 μm pores 706 extending therethrough. A layer 707 of Matrigel™ is shown coating the filter membrane 705.
Cells 708 were plated at a density of 2×10^4/ml onto the Matrigel™ layer 707 in 24-well plates (Becton-Dickinson) according to the manufacturers' instructions. 50 μl Matrigel™ was seeded at a 1:7 dilution (10 mg/ml stock) onto the inserts and left overnight. Prior to seeding with the cells the Matrigel™ was rehydrated using medium with no additions. This medium was removed prior to seeding the cells.
Cells were plated in a 1-5% FBS chemotactic gradient overnight (12 hours). The nutrient concentration in the medium 709 in the upper section 703 of the chamber was less than the concentration of nutrient in the medium 710 in the lower section 704 to induced movement of the cells through the Matrigel™ layer 707 and through the pores 706 to the underside of the filter membrane 705. At the end of each assay, non-invaded/non-migrated cells were removed from the upper surface of the insert 702 with two different swabs.
The number of cells invading to the underside of the insert 702 was determined using crystal violet staining. Invaded cells were fixed for 15 minutes with ice-cold methanol. Then 0.5% crystal violet (in 25% methanol) was added for 15 minutes. The inserts were swabbed again and then washed in water and allowed to dry. Cells were then counted using twelve separate fields of view per insert (×200 magnification). If the difference in the average number of cells invading the two control inserts was more than 40%, the experiment was rejected.
as §1

[3] = tested on: Mat-LyLu cells; test: Transverse migration assay (Transwell); format: cell-based, rat
Experimental: This assay was used to represent the ability of cells to migrate as they intra/extravasate. […] The insert 602 has a migration filter membrane 605 in its base with 8 μm pores 606 extending therethrough.
Cells 607 were plated at a density of 2×10^4/ml on the filter membrane 605 and placed under a growth medium 608 containing 1% foetal bovine serum (FBS). A chemotactic gradient was created across the filter membrane 605 by placing growth medium 609 containing 10% FBS in the lower section 604 of the chamber.
Cells were allowed to migrate across the filter membrane 605 over a period of 24 hours, cells migrating and adhering to the underside of the filter membrane 605.
At the end of each assay, non-migrated cells were removed from the upper surface of the insert 602 with two different swabs
The number of cells migrating to the underside of the insert 602 was determined using crystal violet staining. Migrated cells were fixed for 15 minutes with ice-cold methanol. Then 0.5% crystal violet (in 25% methanol) was added for 15 minutes. The inserts were swabbed again and then washed in water and allowed to dry. Cells were then counted using twelve separate fields of view per insert (×200 magnification).
as §1

[4] = tested on: Mat-LyLu cells; test: Cell growth (proliferation) assay (MTT); format: cell-based, rat
Experimental: Cells were plated at 2×10^4 cells/ml in 24-well plates (Becton-Dickinson) and allowed to settle overnight. The cells were then treated for the required time of incubation (24 hours+), with medium changes every 24 hours. At the end of the treatment, the medium was removed, and this was followed by the colorimetric 3-[4,5-dimethylthiazol-2-yl]-2,5-diphenyltetrazolium bromide (MTT) assay (Grimes et al., 1995). Briefly, 0.1 ml MTT (5 mg/ml made up in the growth medium) and 0.4 ml growth medium was added in each well and the plate was incubated for 3-4 hours at 37° C. The medium was then removed from the chambers and replaced with 0.5 ml dimethyl sulfoxide (DMSO) and 0.063 ml glycine buffer (0.1 M glycine and 0.1 M NaCl; pH 10.5). Absorbance at 570 nm was determined 15 minutes after the addition of the glycine buffer. Results were calculated as means of nine repeats of each of the treatment vs. control spectrophotometer readings from individual invasion wells.
as §1

[5] = Hypoxia, 10 μM, listed as RANOLAZINE
[6] = Normoxia, 10 μM, listed as RANOLAZINE
[7] = Hypoxia, 20 μM, listed as RANOLAZINE
[8] = Hypoxia, 50 μM, listed as RANOLAZINE
[9] = Hypoxia, 300 μM, listed as RANOLAZINE
[10] = Normoxia, 20 μM, listed as RANOLAZINE
[11] = Normoxia, 50 μM, listed as RANOLAZINE
[12] = Normoxia, 300 μM, listed as RANOLAZINE

In the case of `COc1ccccc1OCC(O)CN1CCN(CC(=O)Nc2c(C)cccc2C)CC1` (stereo not shown) [ranolazine], the “LATERAL MOTILITY” value ([1]; Hypoxia, 1 μM) is reported as “statistically significant reduction; also recorded: reduced the lateral motility”, the “LATERAL MOTILITY” value ([1]; Hypoxia, 1 μM, listed as RANOLAZINE) is reported as “decreased” and the “LATERAL MOTILITY” value ([1]; Hypoxia, 10 μM) is reported as “statistically significant reduction; also recorded: reduced the lateral motility”. The “LATERAL MOTILITY” value [1, 5] was “decreased”, the “LATERAL MOTILITY” value ([1]; Hypoxia, 100 μM) was “statistically significant reduction; also recorded: reduced the lateral motility” and the “LATERAL MOTILITY” value ([1]; Hypoxia, 100 μM, listed as RANOLAZINE) was “decreased”. For the same compound, the “LATERAL MOTILITY” value ([1]; Normoxia, 1 μM) was “reduced”, the “LATERAL MOTILITY” value ([1]; Normoxia, 1 μM, listed as RANOLAZINE) was “decreased” and the “LATERAL MOTILITY” value ([1]; Normoxia, 10 μM) was “reduced”. The “LATERAL MOTILITY” value [1, 6] was “decreased”, the “LATERAL MOTILITY” value ([1]; Normoxia, 100 μM) was “reduction at a concentration of 100 μM ranolazine was statistically significant” and the “LATERAL MOTILITY” value ([1]; Normoxia, 100 μM, listed as RANOLAZINE) was “decreased”. For the same compound, the “INVASIVENESS (no pretreatment)” value ([2]; Hypoxia, 5 μM) was “not statistically significant”, the “INVASIVENESS (pretreatment)” value ([2]; Hypoxia, 5 μM, 72 hours pretreatment) was “very significant reduction” and the “INVASIVENESS (pretreatment)” value ([2]; Hypoxia, 5 μM, 72 hours pretreatment, listed as RANOLAZINE) was “decreased”. For the same compound, the “INVASIVENESS (no pretreatment)” value ([2]; Hypoxia, 5 μM, listed as RANOLAZINE) was “no benefit”, the “INVASIVENESS (no pretreatment)” value ([2]; Hypoxia, 10 μM) was “not statistically significant” and the “INVASIVENESS (no pretreatment)” value [2, 5] was “decreased”. The “INVASIVENESS (no pretreatment)” value ([2]; Hypoxia, 20 μM) was “reduced the migration of the cells”, the “INVASIVENESS (no pretreatment)” value [2, 7] was “no benefit” and the “INVASIVENESS (no pretreatment)” value ([2]; Hypoxia, 25 μM) was “less invasive than untreated cells in a statistically significant way”. The “INVASIVENESS (pretreatment)” value ([2]; Hypoxia, 25 μM, 48 hours) was “decreased”, the “INVASIVENESS (pretreatment)” value ([2]; Hypoxia, 25 μM, 72 hours) was “decreased” and the “INVASIVENESS (no pretreatment)” value ([2]; Hypoxia, 25 μM, listed as RANOLAZINE) was “decreased”. For the same compound, the “invasiveness (pre-treatment)” value ([2]; Hypoxia, 25 μM, pre-treated for 24 hours before the 24 hour long assay) was “significantly less invasive”, the “invasiveness (pre-treatment)” value ([2]; Hypoxia, 25 μM, pre-treated for 48 hours before the 24 hour long assay) was “significantly less invasive” and the “INVASIVENESS (no pretreatment)” value ([2]; Hypoxia, 50 μM) was “reduced the migration of the cells”. The “INVASIVENESS (no pretreatment)” value [2, 8] was “decreased”, the “INVASIVENESS (no pretreatment)” value ([2]; Hypoxia, 300 μM) was “reduced the migration of the cells” and the “INVASIVENESS (no pretreatment)” value [2, 9] was “decreased”. The “INVASIVENESS (no pretreatment)” value ([2]; Normoxia, 10 μM) was “reduced the migration of the cells”, the “INVASIVENESS (no pretreatment)” value [2, 6] was “decreased” and the “INVASIVENESS (no pretreatment)” value ([2]; Normoxia, 20 μM) was “reduced the migration of the cells”. The “INVASIVENESS (no pretreatment)” value [2, 10] was “decreased”, the “INVASIVENESS (no pretreatment)” value ([2]; Normoxia, 50 μM) was “not statistically significant” and the “INVASIVENESS (no pretreatment)” value [2, 11] was “no effect”. The “INVASIVENESS (no pretreatment)” value ([2]; Normoxia, 300 μM) was “reduced the migration of the cells”, the “INVASIVENESS (no pretreatment)” value [2, 12] was “decreased” and the “potency on invasiveness compared with positive control TTX” value ([2]; higher concentrations tested, TTX 10 μmol) was “more potent than the toxin (TTX)”. For the same compound, the “TRANSVERSE MIGRATION” value ([3]; Hypoxia, 20 μM) was “reduced the transverse migration of the cells in a statistically significant way”, the “TRANSVERSE MIGRATION” value [3, 7] was “decreased” and the “TRANSVERSE MIGRATION” value ([3]; Hypoxia, 50 μM) was “reduced the transverse migration of the cells in a statistically significant way”. For the same compound, the “TRANSVERSE MIGRATION” value [3, 8] was “decreased”, the “TRANSVERSE MIGRATION” value ([3]; Hypoxia, 300 μM) was “reduced the transverse migration of the cells in a statistically significant way” and the “TRANSVERSE MIGRATION” value [3, 9] was “decreased”. The “TRANSVERSE MIGRATION” value ([3]; Normoxia, 20 μM) was “reduced the transverse migration”, the “TRANSVERSE MIGRATION” value [3, 10] was “decreased” and the “TRANSVERSE MIGRATION” value ([3]; Normoxia, 50 μM) was “reduced the transverse migration”. For the same compound, the “TRANSVERSE MIGRATION” value [3, 11] was “decreased”, the “TRANSVERSE MIGRATION” value ([3]; Normoxia, 300 μM) was “not statistically significant” and the “TRANSVERSE MIGRATION” value [3, 12] was “no effect”. The “potency on transverse migration compared with positive control TTX” value ([3]; higher concentrations tested, TTX 1 μmol) was “more potent than the toxin (TTX)”, the “PROLIFERATION (24 hours)” value ([4]; Hypoxia, 20 μM) was “did not result in any statistically significant effect” and the “PROLIFERATION (24 hours)” value [4, 7] was “no effect”. The “PROLIFERATION (24 hours)” value ([4]; Hypoxia, 50 μM) was “did not result in any statistically significant effect”, the “PROLIFERATION (24 hours)” value [4, 8] was “no effect” and the “PROLIFERATION (24 hours)” value ([4]; Hypoxia, 300 μM) was “reduction in the number of cells”. For the same compound, the “PROLIFERATION (24 hours)” value [4, 9] was “tail off”, the “PROLIFERATION (24 hours)” value ([4]; Normoxia, 20 μM) was “did not result in any statistically significant effect” and the “PROLIFERATION (24 hours)” value [4, 10] was “no effect”. The “PROLIFERATION (24 hours)” value ([4]; Normoxia, 50 μM) was “did not result in any statistically significant effect”, the “PROLIFERATION (24 hours)” value [4, 11] was “no effect” and the “PROLIFERATION (24 hours)” value ([4]; Normoxia, 300 μM) was “did not result in any statistically significant effect”. The “PROLIFERATION (24 hours)” value [4, 12] was “tail off”.
